Article PMC5926957 (Japanese Journal of Cancer Research : Gann, 2002)

Target: P-glycoprotein (P-gp) (Homo sapiens, UniProt P08183)
Experiment: calcein-AM efflux assay in L-MDR1 vs LLC-PK1 cells
Assay type: cell-based

Chain of P-glycoprotein (P-gp) (P08183 whole entry): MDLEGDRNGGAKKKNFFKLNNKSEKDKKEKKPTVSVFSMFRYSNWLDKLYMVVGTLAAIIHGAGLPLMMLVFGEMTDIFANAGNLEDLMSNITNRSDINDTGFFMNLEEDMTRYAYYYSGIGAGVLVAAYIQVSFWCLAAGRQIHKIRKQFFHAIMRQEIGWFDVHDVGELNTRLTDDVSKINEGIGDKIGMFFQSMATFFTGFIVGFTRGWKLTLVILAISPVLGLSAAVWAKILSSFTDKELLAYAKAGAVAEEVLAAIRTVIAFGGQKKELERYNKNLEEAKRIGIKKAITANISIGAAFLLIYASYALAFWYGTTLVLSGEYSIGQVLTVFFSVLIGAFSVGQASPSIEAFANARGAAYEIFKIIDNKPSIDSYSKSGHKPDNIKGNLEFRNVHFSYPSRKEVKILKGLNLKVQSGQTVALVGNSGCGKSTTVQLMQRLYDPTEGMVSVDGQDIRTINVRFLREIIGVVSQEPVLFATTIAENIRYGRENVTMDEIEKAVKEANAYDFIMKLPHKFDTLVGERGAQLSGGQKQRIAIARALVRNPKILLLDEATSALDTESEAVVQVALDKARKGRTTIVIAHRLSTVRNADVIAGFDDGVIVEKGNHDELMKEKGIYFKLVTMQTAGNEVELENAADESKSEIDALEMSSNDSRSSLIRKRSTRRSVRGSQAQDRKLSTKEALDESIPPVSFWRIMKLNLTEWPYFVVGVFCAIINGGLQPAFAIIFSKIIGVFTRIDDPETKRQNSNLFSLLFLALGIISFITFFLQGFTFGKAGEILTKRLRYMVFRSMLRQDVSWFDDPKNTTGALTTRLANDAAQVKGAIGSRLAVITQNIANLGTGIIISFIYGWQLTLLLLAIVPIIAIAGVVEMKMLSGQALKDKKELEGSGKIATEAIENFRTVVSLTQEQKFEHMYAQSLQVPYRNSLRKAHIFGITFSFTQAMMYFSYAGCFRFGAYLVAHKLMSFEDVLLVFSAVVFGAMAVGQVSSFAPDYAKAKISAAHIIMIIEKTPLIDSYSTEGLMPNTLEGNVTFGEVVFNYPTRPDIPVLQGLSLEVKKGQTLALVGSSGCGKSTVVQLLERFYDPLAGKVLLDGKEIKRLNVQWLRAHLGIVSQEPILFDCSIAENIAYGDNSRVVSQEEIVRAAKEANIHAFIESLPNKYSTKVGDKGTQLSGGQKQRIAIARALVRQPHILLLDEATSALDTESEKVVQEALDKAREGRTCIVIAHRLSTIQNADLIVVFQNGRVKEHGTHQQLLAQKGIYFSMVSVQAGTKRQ

How did the Ki turn out when `CC(C)C[C@H]1C(=O)N2CCC[C@H]2[C@]2(O)O[C@](NC(=O)[C@@H]3C=C4c5cccc6[nH]c(Br)c(c56)C[C@H]4N(C)C3)(C(C)C)C(=O)N12` [bromocriptine] was run?
Its Ki is 6.52 µM.
